The results in this text go back to ChEMBL document CHEMBL3232863, “Small molecule disruptors of the glucokinase-glucokinase regulatory protein interaction: 3. Structure-activity relationships within the aryl carbinol region of the N-arylsulfonamido-N'-arylpiperazine series” (J Med Chem, 2014).

Data set [1] is described as follows: Tmax in C57BL/6 mouse at 10 mg/kg, po. Details: dose 10 mg/kg, route oral. The class given is ADME, organism-based. The settings on record: in vivo.
The nature of data set [2]: AUC in C57BL/6 mouse at 10 mg/kg, po. The class given is ADME, organism-based. Further details: dose 10 mg/kg, route oral. The conditions noted are these: plasma.
Data set [3] in a line: Cmax in C57BL/6 mouse at 10 mg/kg, po. The settings on record: in vivo. The class given is ADME, organism-based. Details: dose 10 mg/kg, route oral.
Data set [4] can be described thus: (§1) AUC in Sprague-Dawley rat at 10 mg/kg, po. Further details: dose 10 mg/kg, route oral. The class given is ADME, organism-based, Plasma. The conditions noted are these: Sprague-Dawley, plasma.
A short description of data set [5]: (§2) Oral bioavailability in Sprague-Dawley rat at 10 mg/kg. In kind it is ADME, organism-based. The settings on record: Sprague-Dawley, in vivo.
In data set [6] the test system is Rattus norvegicus. Described as §2. In kind it is ADME, organism-based. The conditions noted are these: in vivo.
Data set [7] deals with Rattus norvegicus. Described as §1. The class given is ADME, organism-based, Plasma. Further details: dose 10 mg/kg, route oral. The conditions noted are these: in vivo.
The nature of data set [8]: Oral bioavailability in C57BL/6 mouse at 10 mg/kg. The settings on record: in vivo. The class given is ADME, organism-based.

In general, Tmax refers to the time from dosing to the highest level. One may read the AUC as the area under the concentration-time curve, a measure of exposure. A lower AUC goes with low exposure. Usually Cmax stands for the peak of the concentration-time curve. As to `CC#C[C@H]1CN(S(=O)(=O)c2ccc(N)nc2)CCN1c1ccc(C(O)(C(F)(F)F)C(F)(F)F)cc1`, the Tmax in data set [1] came out at 5 h. Further, the AUC in data set [2] was 64.8 µM·h; in data set [4], 20 µM·h. This compound gave a Cmax in data set [3] of 5.82 µM.
The bioavailability is the share of a dose that reaches the circulation, judged against a reference dose that is usually intravenous. `CC#C[C@H]1CN(S(=O)(=O)c2ccc(N)nc2)CCN1c1ccc([C@](O)(CO)C(F)(F)F)cc1` returned a bioavailability in data set [5] of 48%. This compound also gave an AUC in data set [4] of 7.1 µM·h.
The corresponding values for `CC#C[C@H]1CN(S(=O)(=O)c2ccc(N)nc2)CCN1c1ccc(S(N)(=O)=O)cc1` are 5% and 0.26 µM·h.
The compound `CC#C[C@H]1CN(S(=O)(=O)c2ccc(N)nc2)CCN1c1ccc(S(=O)(=O)NC)cc1` registered a F in the data set on Rattus norvegicus [6] of 1.5%. Besides, the AUC in the data set on Rattus norvegicus [7] worked out at 0.03 µM·h.
As to `CC#C[C@H]1CN(S(=O)(=O)c2ccc(N)nc2)CCN1c1ccc([S@](=N)(=O)C(F)(F)F)cc1`, the Tmax in data set [1] came out at 1 h. The bioavailability in data set [8] was determined as 53%; in data set [5], 51%. In addition, the AUC in data set [2] was found to be 362 µM·h; in data set [4], 25.3 µM·h. In data set [3], this compound returned a Cmax of 46.6 µM.
Take `CC#C[C@H]1CN(S(=O)(=O)c2ccc(N)nc2)CCN1c1ccc([C@@](C)(O)C(F)(F)F)cn1`: the Tmax in data set [1] worked out at 0.25 h. The bioavailability in data set [8] and in data set [5] was 47% throughout. In addition, the AUC in data set [2] is 37 µM·h; in data set [4], 28.4 µM·h. The compound further returned a Cmax in data set [3] of 9.71 µM.
